# Like-named read-outs stand apart in the source and are kept apart here. Marks after values point to notes of the source that are not given here.
# Assays:
# [1] = test system: Human Breast Adenocarcinoma Cell Line MDA-MB-231; assay: Drug cytotoxicity testing (viable cell count, trypan blue exclusion, cell growth inhibition); type: cell-based; conditions: for cell growth inhibition reached on increase of the concentration, in (B): dilution in normal saline (B)
# Procedure: (§1) MDA-MB-231 cells were propagated in MEM culture medium with 2 mM L-glutamine, 10% heat-inactivated fetal bovine serum (FBS) and antibiotics. DU 145 cells were cultured in MEM culture medium containing 2 mM L-glutamine, 1 mM sodium pyruvate, 10% FBS and antibiotics. SKOV-3 cells were cultured in McCoy's 5A culture medium, supplemented with 1,5 mM L-glutamine, 10% FBS and antibiotics. A549 cells were cultured in Ham's F-12 culture medium with 1 mM L-glutamine, 10% FBS and antibiotics. All media and supplements were purchased from Sigma-Aldrich (St.Louis, MO, USA). Cell propagation of all lines was carried out in Falcon™ 25 cm^2 cultivation flasks (Becton Dickinson Labware).
# (§2) Drug cytotoxicity testing was carried out with using Falcon™ 96-well cultivation plates for adherent cells (Becton Dickinson Labware). These plates were seeded by cells either at 12 × 10^3 MDA-MB-231 cells/well, or at 12 × 10^3 DU 145 cells/well, or at 14 × 10^3 SKOV-3 cells/well, or at 10 × 10^3 A549 cells/well in a volume of 200 µL/well.
# (§3) The cell cultures in cultivation plates were allowed to adhere for 24 hour of incubation. On day 1 after cell seeding, 2 µL solutions of the drugs to be tested in medium with 5% FBS was added to the cultures. In the control cultures, 2 µL of medium with 5% FBS was added as solvent control. The cells were incubated for 2 consecutive days. At the end of the incubation period adherent cells were detached by trypsinization and the number of viable cells was counted using trypan blue exclusion test and a hemocytometer. All data were derived from an average of three determinations each in six replicates. The results were expressed as mean cell number ± SE and the differences between control and test series evaluated by means of Student's t-test. The drug cytotoxicity was evaluated based on the extent of cell growth inhibition. The cell growth inhibition of the tested drugs was calculated as follows: Cell growth inhibition,% = (Control-TestSeries)/(Control) × 100 [formula]
# In the case of comparative evaluation of cytotoxicity of the inventive compounds themselves and the formulation related to consecutive dilutions of their initial solutions before adding to the cultures, 2 µL solutions of the drugs to be tested in medium with 5% FBS, in normal saline and in saline with 2,3 mM CaCl2 were added to the cultures. In control cultures, 2 µL of medium with 5% FBS, normal saline and saline with 2,3 mM CaCl2 were added as solvent controls (negative controls). […] Therefore an average of negative controls was calculated. […] Therefore an average of positive controls was calculated (for each antibiotic).
# [2] = test system: Human Prostate Carcinoma Cell Line DU 145; assay: as above; type: cell-based; conditions: alone or in formulation at molar ratio 1:6
# Procedure: as §1, §2, §3
# [3] = rat, in vivo, ip; for mortality: 100 mg/kg
# Procedure: A single dose i.p. toxicity study in rats was carried out. […] The minimal lethal dose is thus above 100 mg/kg body weight for these compounds.
# [4] = cytotoxic drug 10^-8 mol/L, working solutions in medium with 5% FBS
# [5] = Homo sapiens, MDA-MB-231, compound alone 10^-7 mol/L, in A (saline with […] CaCl2), read-out: cell growth inhibition
# [6] = Homo sapiens, MDA-MB-231, compound alone 10^-7 mol/L, in B (normal saline), read-out: cell growth inhibition
# [7] = Homo sapiens, MDA-MB-231, compound alone 10^-7 mol/L, read-out: Cell growth inhibition in A compared to that in B was increased by
# [8] = Homo sapiens, MDA-MB-231, compound alone 10^-8 mol/L, in A (saline with […] CaCl2), read-out: cell growth inhibition
# [9] = Homo sapiens, MDA-MB-231, compound alone 10^-8 mol/L, in B (normal saline), read-out: cell growth inhibition
# [10] = Homo sapiens, MDA-MB-231, compound alone 10^-8 mol/L, read-out: Cell growth inhibition in A compared to that in B was increased by
# [11] = Homo sapiens, MDA-MB-231, compound alone 10^-9 mol/L, in A (saline with […] CaCl2), read-out: cell growth inhibition
# [12] = Homo sapiens, MDA-MB-231, compound alone 10^-9 mol/L, in B (normal saline), read-out: cell growth inhibition
# [13] = Homo sapiens, MDA-MB-231, compound alone 10^-9 mol/L, read-out: Cell growth inhibition in A compared to that in B was increased by
# [14] = compound alone 10^-7 mol/L, in B (normal saline)
# [15] = compound alone 10^-8 mol/L, in B (normal saline)
# [16] = compound alone 10^-9 mol/L, in B (normal saline)
# [17] = sodium salt, range 10^-9 to 10^-7 M
# [18] = Homo sapiens, MDA-MB-231, 48 h, compound alone, final concentration 10^-7 mol/L, working solutions in MEM with 5% FBS, two days, read-out: cell growth inhibition
# [19] = Homo sapiens, MDA-MB-231, 48 h, compound alone, final concentration 10^-8 mol/L, working solutions in MEM with 5% FBS, two days, read-out: cell growth inhibition
# [20] = Homo sapiens, MDA-MB-231, 48 h, compound alone, final concentration 10^-9 mol/L, working solutions in MEM with 5% FBS, two days, read-out: cell growth inhibition
# [21] = compound alone, final concentration 10^-7 mol/L, working solutions in MEM with 5% FBS, two days
# [22] = compound alone, final concentration 10^-8 mol/L, working solutions in MEM with 5% FBS, two days
# [23] = compound alone, final concentration 10^-9 mol/L, working solutions in MEM with 5% FBS, two days
smiles,measurement,setting,value
"O=C1c2c(O)ccc(O)c2C(=O)c2c(NCCNCCO)ccc(NCCNCCO)c21 [Mitoxantrone, mitoxantrone]",IC50,"[1]; Homo sapiens, MDA-MB-231, as concentration of cytotoxic drug, alone or in formulation at molar ratio 1:6, medium with 5% FBS, calculated from three concentrations, read-out: IC50 mol/L (a)",5 nM
same,inhibition at 0.1 µM,"[1]; Homo sapiens, MDA-MB-231, cytotoxic drug 10^-7 mol/L (100 nM), alone or in formulation at molar ratio 1:6, working solutions in medium with 5% FBS, read-out: Cell Growth Inhibition, %",58.8%
same,inhibition at 0.01 µM,"[1]; Homo sapiens, MDA-MB-231, cytotoxic drug 10^-8 mol/L, alone or in formulation at molar ratio 1:6, working solutions in medium with 5% FBS, read-out: Cell Growth Inhibition, %",52.6%
same,inhibition at 0.001 µM,"[1]; Homo sapiens, MDA-MB-231, cytotoxic drug 10^-9 mol/L, alone or in formulation at molar ratio 1:6, working solutions in medium with 5% FBS, read-out: Cell Growth Inhibition, %",43.6%
same,"Tumor Cell Number, × 10^3","[1]; cytotoxic drug 10^-7 mol/L (100 nM), alone or in formulation at molar ratio 1:6, working solutions in medium with 5% FBS",22.5 ± 1.63 × 10^3
same,"Cell Growth Inhibition, %","[1]; cytotoxic drug 10^-7 mol/L (100 nM), alone or in formulation at molar ratio 1:6, working solutions in medium with 5% FBS, 0.1 µM",61.1* %
same,"Tumor Cell Number, × 10^3","[1]; cytotoxic drug 10^-7 mol/L (100 nM), alone or in formulation at molar ratio 1:6, working solutions in medium with 5% FBS, listed as mitoxantrone",22.9 ± 1.49 × 10^3
same,"Tumor Cell Number, × 10^3","[1]; cytotoxic drug 10^-8 mol/L, alone or in formulation at molar ratio 1:6, working solutions in medium with 5% FBS",27.4 ± 1.90 × 10^3
same,"Tumor Cell Number, × 10^3","[1]; cytotoxic drug 10^-9 mol/L, alone or in formulation at molar ratio 1:6, working solutions in medium with 5% FBS",32.6 ± 1.99 × 10^3
same,inhibition at 0.1 µM,"[2]; Homo sapiens, DU-145, cytotoxic drug 10^-7 mol/L (100 nM), working solutions in medium with 5% FBS",60.2%
same,inhibition at 0.01 µM,"[2]; Homo sapiens, DU-145, cytotoxic drug 10^-8 mol/L, working solutions in medium with 5% FBS",39.1%
same,inhibition at 0.001 µM,"[2]; Homo sapiens, DU-145, cytotoxic drug 10^-9 mol/L, working solutions in medium with 5% FBS",19.1%
same,IC50,"[2]; Homo sapiens, DU-145, as concentration of cytotoxic drug, medium with 5% FBS, calculated from three concentrations, read-out: IC50 mol/L (a)",32 nM
same,"Tumor Cell Number, × 10^3","[2]; cytotoxic drug 10^-7 mol/L (100 nM), working solutions in medium with 5% FBS",23.1 ± 1.34 × 10^3
same,"Cell Growth Inhibition, %","[2]; cytotoxic drug 10^-7 mol/L (100 nM), working solutions in medium with 5% FBS, 0.1 µM",59.8* %
same,"Tumor Cell Number, × 10^3","[2]; cytotoxic drug 10^-7 mol/L (100 nM), working solutions in medium with 5% FBS, listed as mitoxantrone",19.2 ± 1.16 × 10^3
same,"Cell Growth Inhibition, %",[2]; [4],39.1 * %
same,"Tumor Cell Number, × 10^3",[2]; [4],35.0 ± 1.70 × 10^3
same,"Tumor Cell Number, × 10^3","[2]; cytotoxic drug 10^-9 mol/L, working solutions in medium with 5% FBS",46.5 ± 2.32 × 10^3
"CC1=C(/C=C/C(C)=C/C=C/C(C)=C/C(=O)N[C@@H](CS(=O)(=O)O)C(=O)O)C(C)(C)CCC1 [compound I-1, N-(all-trans-Retinoyl)-L-cysteic acid]",inhibition at 0.1 µM,[1]; [5],41.5%
same,inhibition at 0.1 µM,[1]; [6],31.3%
same,inhibition at 0.1 µM,[1]; [7],14.8%
same,inhibition at 0.01 µM,[1]; [8],40.2%
same,inhibition at 0.01 µM,[1]; [9],29.7%
same,inhibition at 0.01 µM,[1]; [10],15%
same,inhibition at 0.001 µM,[1]; [11],36.9%
same,inhibition at 0.001 µM,[1]; [12],24.8%
same,inhibition at 0.001 µM,[1]; [13],16.1%
same,number of viable cells,[1]; [14],39.1 ± 1.41 × 10^3
same,number of viable cells,[1]; [15],40.0 ± 1.35 × 10^3
same,number of viable cells,[1]; [16],42.8 ± 1.56 × 10^3
same,"cell growth inhibition reached on increase of the concentration, in (B)",[1]; [17],~31%
same,minimal lethal dose,[3],above 100 mg/kg body weight
"COC(=O)[C@H](CS(=O)(=O)O)NC(=O)/C=C(C)/C=C/C=C(C)/C=C/C1=C(C)CCCC1(C)C [compound I-1a, N-(all-trans-retinoyl)-L-cysteic acid methyl ester]",inhibition at 0.1 µM,[1]; [18],47.9%
same,inhibition at 0.01 µM,[1]; [19],45.6%
same,inhibition at 0.001 µM,[1]; [20],40%
same,number of viable cells,[1]; [21],29.8 ± 2.44 × 10^3
same,number of viable cells,[1]; [22],31.1 ± 1.90 × 10^3
same,number of viable cells,[1]; [23],34.3 ± 2.27 × 10^3
same,minimal lethal dose,[3],above 100 mg/kg body weight
same,mortality,[3],did not produce mortality
"CC1=C(/C=C/C(C)=C/C=C/C(C)=C/C(=O)N[C@@H](CS(=O)(=O)O)C(N)=O)C(C)(C)CCC1 [compound I-1f, N-(all-trans-retinoyl)-L-cysteic acid amide]",inhibition at 0.1 µM,[1]; [18],52.5%
same,inhibition at 0.01 µM,[1]; [19],48.6%
same,inhibition at 0.001 µM,[1]; [20],44.8%
same,inhibition at 0.1 µM,[1]; [5],53.3%
same,inhibition at 0.1 µM,[1]; [6],44.9%
same,inhibition at 0.1 µM,[1]; [7],15.2%
same,inhibition at 0.01 µM,[1]; [8],46.3%
same,inhibition at 0.01 µM,[1]; [9],36.1%
same,inhibition at 0.01 µM,[1]; [10],16.1%
same,inhibition at 0.001 µM,[1]; [11],38.6%
same,inhibition at 0.001 µM,[1]; [12],25.8%
same,inhibition at 0.001 µM,[1]; [13],17.1%
same,number of viable cells,[1]; [14],31.6 ± 0.89 × 10^3
same,number of viable cells,[1]; [15],36.7 ± 0.75 × 10^3
same,number of viable cells,[1]; [16],42.6 ± 0.80 × 10^3
same,number of viable cells,[1]; [21],25.3 ± 1.11 × 10^3
same,number of viable cells,[1]; [22],27.4 ± 1.42 × 10^3
same,number of viable cells,[1]; [23],29.4 ± 2.15 × 10^3
same,cell growth inhibition in (A) compared to compound in B,[1]; [17],~15%
same,"cell growth inhibition reached on increase of the concentration, in (B)",[1]; [17],~45%
same,minimal lethal dose,[3],above 100 mg/kg body weight
same,mortality,[3],did not produce mortality
"CC1=C(/C=C/C(C)=C/C=C/C(C)=C\C(=O)N[C@@H](CS(=O)(=O)O)C(=O)OC(C)C)C(C)(C)CCC1 [compound II-1c, N-(13-cis-retinoyl)-L-cysteic acid isopropyl ester]",inhibition at 0.1 µM,[1]; [18],50.4%
same,inhibition at 0.01 µM,[1]; [19],47%
same,inhibition at 0.001 µM,[1]; [20],42.6%
same,number of viable cells,[1]; [23],33.6 ± 2.75 × 10^3
"CCCOC(=O)[C@H](CS(=O)(=O)O)NC(=O)\C=C(C)/C=C/C=C(C)/C=C/C1=C(C)CCCC1(C)C [compound II-1d, N-(13-cis-retinoyl)-L-cysteic acid propyl ester]",inhibition at 0.1 µM,[1]; [18],53.7%
same,inhibition at 0.01 µM,[1]; [19],50.4%
same,inhibition at 0.001 µM,[1]; [20],44.9%
same,number of viable cells,[1]; [21],26.3 ± 1.86 × 10^3
same,number of viable cells,[1]; [22],28.2 ± 1.29 × 10^3
same,number of viable cells,[1]; [23],31.3 ± 2.68 × 10^3
"CCCCOC(=O)[C@H](CS(=O)(=O)O)NC(=O)\C=C(C)/C=C/C=C(C)/C=C/C1=C(C)CCCC1(C)C [compound II-1e, N-(13-cis-retinoyl)-L-cysteic acid butyl ester]",inhibition at 0.01 µM,[1]; [19],50.7%
same,inhibition at 0.001 µM,[1]; [20],45.6%
same,number of viable cells,[1]; [23],30.9 ± 1.82 × 10^3
"CC1=C(/C=C/C(C)=C/C=C/C(C)=C\C(=O)N[C@@H](CCS(=O)(=O)O)C(=O)O)C(C)(C)CCC1 [compound II-3, N-(13-cis-Retinoyl)-L-homocysteic acid]",minimal lethal dose,[3],above 100 mg/kg body weight
